Assay results reported in patent US20250313575A1, “MACROCYCLES AS LRRK2 INHIBITORS, PHARMACEUTICAL COMPOSITIONS, AND USES THEREOF” (Merck Sharp & Dohme LLC, priority 2022, published 2025).

Target: GST-tagged truncated human mutant G2019S LRRK2 (Homo sapiens (Human), UniProt Q5S007, G2019S)
Experiment: LRRK2 G2019S Km ATP LanthaScreen assay
Type: biochemical
Conditions: G2019S LRRK2, 134 μM ATP (Km ATP), LRRKtide substrate
Procedure, shortened: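 Ten-point compound series (highest 9.99 μM in DMSO) preincubated 15 min with 1.25 nM GST-tagged truncated human LRRK2 G2019S, then 90 min reaction at ambient temperature with 134 μM ATP (Km) and fluorescein-labelled LRRKtide, pH 8.5. Phosphorylation read as 520/495 nm emission ratio via Tb-labelled antibody; IC50 from 4P logistic regression.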

GST-tagged truncated human mutant G2019S LRRK2, sequence (Q5S007 970-2527 G2019S): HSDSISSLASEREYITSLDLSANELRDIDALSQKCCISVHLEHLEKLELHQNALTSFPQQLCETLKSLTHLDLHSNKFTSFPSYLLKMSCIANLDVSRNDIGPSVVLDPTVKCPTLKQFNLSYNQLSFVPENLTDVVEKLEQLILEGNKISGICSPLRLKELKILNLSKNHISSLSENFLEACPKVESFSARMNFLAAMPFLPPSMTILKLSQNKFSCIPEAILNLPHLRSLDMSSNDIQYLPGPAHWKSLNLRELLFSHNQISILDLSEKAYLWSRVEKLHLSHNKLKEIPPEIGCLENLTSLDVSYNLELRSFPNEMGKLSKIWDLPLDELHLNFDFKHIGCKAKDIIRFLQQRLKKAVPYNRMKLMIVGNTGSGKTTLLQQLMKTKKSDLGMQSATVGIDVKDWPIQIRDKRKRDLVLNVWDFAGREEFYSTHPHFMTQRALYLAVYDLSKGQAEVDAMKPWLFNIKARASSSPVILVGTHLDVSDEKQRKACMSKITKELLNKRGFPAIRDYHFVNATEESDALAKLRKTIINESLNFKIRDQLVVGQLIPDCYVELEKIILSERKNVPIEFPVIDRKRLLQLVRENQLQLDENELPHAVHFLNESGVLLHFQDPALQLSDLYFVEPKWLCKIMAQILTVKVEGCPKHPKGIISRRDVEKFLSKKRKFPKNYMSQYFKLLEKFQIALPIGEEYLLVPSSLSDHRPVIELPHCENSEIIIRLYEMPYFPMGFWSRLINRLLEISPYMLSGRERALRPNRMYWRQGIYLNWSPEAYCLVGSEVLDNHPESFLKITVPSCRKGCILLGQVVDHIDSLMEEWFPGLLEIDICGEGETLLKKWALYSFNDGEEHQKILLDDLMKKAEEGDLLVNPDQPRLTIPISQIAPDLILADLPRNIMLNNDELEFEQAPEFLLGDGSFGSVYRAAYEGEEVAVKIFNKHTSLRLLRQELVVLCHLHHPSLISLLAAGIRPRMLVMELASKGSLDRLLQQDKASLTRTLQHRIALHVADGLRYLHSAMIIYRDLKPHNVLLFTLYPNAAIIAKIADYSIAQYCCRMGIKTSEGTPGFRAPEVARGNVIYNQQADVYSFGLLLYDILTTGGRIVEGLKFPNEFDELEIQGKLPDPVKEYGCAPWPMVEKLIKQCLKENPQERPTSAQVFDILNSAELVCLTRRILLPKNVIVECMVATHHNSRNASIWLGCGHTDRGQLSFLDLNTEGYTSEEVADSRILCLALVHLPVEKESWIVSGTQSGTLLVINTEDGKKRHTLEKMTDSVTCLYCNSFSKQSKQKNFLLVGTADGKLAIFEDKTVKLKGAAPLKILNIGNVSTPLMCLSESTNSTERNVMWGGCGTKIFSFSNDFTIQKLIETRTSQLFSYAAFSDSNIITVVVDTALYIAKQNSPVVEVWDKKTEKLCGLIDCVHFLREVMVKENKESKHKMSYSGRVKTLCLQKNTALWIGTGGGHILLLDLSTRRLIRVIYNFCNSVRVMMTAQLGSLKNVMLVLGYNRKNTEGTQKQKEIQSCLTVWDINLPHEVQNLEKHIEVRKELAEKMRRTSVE

Cc1nn(C2CCC2)c2c1OCC1CCCC1Nc1nc(ncc1C(F)(F)F)N2 [Ex-5.4, (10aR,13aR)- or (10aS,13aS)-3-cyclobutyl-1-methyl-8-(trifluoromethyl)-3,4,10a,11,12,13,13a,14-octahydro-10H-5,9-(azeno)cyclopenta[k]pyrazolo[4,3-b][1]oxa[4,6,10]triazacyclotridecine] was tested, and the “LRRK2 pIC50” value was 6.78.

COC1CC(n2nc(C)c3c2Nc2ncc(C(F)(F)F)c(n2)NC2COCC2CO3)C1 (single isomer, unassigned) [Ex-2.32, (10aS,13aS)- or (10aR,13aR)-3-((1R,3S)-3-methoxycyclobutyl)-1-methyl-8-(trifluoromethyl)-3,4,10a,11,13a,14-hexahydro-10H,13H-5,9-(azeno)furo[3,4-k]pyrazolo[4,3-b][1]oxa[4,6,10]triazacyclotridecine] showed an IC50 (read-out: LRRK2 pIC50 (converted)) of 0.0912 nM.
